Tested on in one series: not given
Assay: not given
Particulars: in water; cited from earlier work.
As to `CCCCCCCCCCCCCCO[C@@H]1O[C@H](CO)[C@@H](O[C@@H]2O[C@@H](CO)[C@H](O)[C@@H](O)[C@@H]2O)[C@H](O)[C@H]1O` (stereo in doubt) [Tetradecyl maltoside], the CMC is given as 0.01 mM.
As to `CCCCCCCCCCCCCO[C@@H]1O[C@H](CO)[C@@H](OC2OC(CO)C(O)C(O)C2O)[C@H](O)[C@H]1O` (stereo in doubt) [Tridecyl maltoside], the CMC was 0.03 mM.
On to `CCCCCCCCCCO[C@@H]1O[C@H](CO)[C@@H](O[C@H]2O[C@H](CO)[C@@H](O)[C@H](O)[C@H]2O)[C@H](O)[C@H]1O` [Decyl maltoside], for which the CMC was 1.8 mM.
With `CCCCCCCCCCCCO[C@@H]1O[C@H](CO)[C@@H](O[C@H]2O[C@H](CO)[C@@H](O)[C@H](O)[C@H]2O)[C@H](O)[C@H]1O` [Dodecyl-β-D-maltoside], the CMC is reported as 0.17 mM.
Regarding `CCCCCCCCO[C@@H]1O[C@H](CO)[C@@H](O[C@H]2O[C@H](CO)[C@@H](O)[C@H](O)[C@H]2O)[C@H](O)[C@H]1O` [Octyl maltoside], the CMC is recorded as 19.5 mM.
On to Sucrose dodecanoate, for which the CMC is listed as 0.3 mM.

The next series deals with T1, glucagon R (Homo sapiens, UniProt P47871).
T1 construct: Cerep SA
T1 sequence (P47871 26-477): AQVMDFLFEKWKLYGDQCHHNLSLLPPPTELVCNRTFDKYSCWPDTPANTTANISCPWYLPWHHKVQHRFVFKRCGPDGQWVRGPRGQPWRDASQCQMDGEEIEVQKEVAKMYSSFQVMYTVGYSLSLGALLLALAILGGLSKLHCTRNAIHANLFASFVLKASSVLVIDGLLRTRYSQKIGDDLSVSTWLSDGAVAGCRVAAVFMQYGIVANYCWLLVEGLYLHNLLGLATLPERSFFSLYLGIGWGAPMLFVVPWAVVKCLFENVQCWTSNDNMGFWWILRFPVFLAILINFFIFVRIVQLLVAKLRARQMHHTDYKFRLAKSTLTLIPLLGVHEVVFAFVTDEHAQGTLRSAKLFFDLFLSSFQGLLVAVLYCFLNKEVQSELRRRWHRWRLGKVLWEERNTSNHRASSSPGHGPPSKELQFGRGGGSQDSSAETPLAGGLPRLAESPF
Description: glucagon cellular assay, stimulation of cAMP levels (Cerep SA). Format: cell-based. Particulars: cAMP generated in cells; n.c. means EC50 not calculable.
Description: Compounds were weighed precisely in an amount of approximately 1 mg and assayed in standard cellular assays (Cerep SA). The readout is the amount of cAMP generated in the cells treated with the test compounds, in either agonist or antagonist mode.
For `CCCCCCCCCCCCO[C@@H]1O[C@H](C(=O)NCCCC[C@H](NC(=O)[C@@H]2CCCCNC(=O)CC[C@H](NC(=O)[C@H](CC(=O)O)NC(=O)[C@H](CC(C)C)NC(=O)[C@H](Cc3ccc(O)cc3)NC(=O)[C@H](CCCCN)NC(=O)[C@H](CO)NC(=O)[C@H](Cc3ccc(O)cc3)NC(=O)[C@H](CC(=O)O)NC(=O)[C@H](CO)NC(=O)[C@@H](NC(=O)[C@H](Cc3ccccc3)NC(=O)[C@@H](NC(=O)CNC(=O)[C@H](CCC(N)=O)NC(=O)C(C)(C)NC(=O)[C@@H](N)Cc3c[nH]cn3)[C@@H](C)O)[C@@H](C)O)C(=O)N[C@@H](CCCNC(=N)N)C(=O)N[C@@H](C)C(=O)N[C@@H](C)C(=O)N2)C(=O)N[C@@H](Cc2ccccc2)C(=O)NC(C)(C)C(N)=O)[C@@H](O)[C@H](O)[C@H]1O` [EU-A455], the EC50 (usually the concentration giving half of the maximal effect) is 770 nM.

The record behind these values is patent publication US10471127B2, “Peptide pharmaceuticals for insulin resistance” (Mederis Diabetes, LLC, priority 2011, dated 2019).
